{"source": "patent US12441775B2", "about": "“BCL-W polypeptides and mimetics for treating or preventing chemotherapy-induced peripheral neuropathy and hearing loss” (Dana-Farber Cancer Institute, Inc., priority 2016, dated 2025)", "key": {"[1]": {"test_system": "Bclw", "experiment": "qRT-PCR and Western blot of cell body and axon lysate after paclitaxel", "assay_type": "cell-based, rat", "settings": "24 hours paclitaxel to axons; axons vs cell bodies", "method": "Cell culture. Compartmented chamber (Campenot) cultures were prepared as described (see, e.g., Fenstermacher et al., Springer Protocols: Neuromethods, 103:105-124 (2015)), with modifications. Briefly, DRGs from embryonic day 15 (E15) rats of either sex were dissected and trypsinized. DRGs (1.2×10^5 cells) were plated in the center compartment of a Teflon divider (Camp10, Tyler Research; Campenot, 1982) affixed to a p35 culture dish coated with growth factor reduced Matrigel basement membrane (BD Biosciences) 1:45 in DMEM. Cultures were maintained in media consisting of Neurobasal (Invitrogen) with 2% B27 supplement (Invitrogen), 1% penicillin-streptomycin, 1% GlutaMAX (Life Technologies), 0.08% glucose, and 0.3 μM cytosine arabinoside (AraC) at 37° C., 7.5% CO2; BDNF+NGF (PeproTech) were added to the cell body compartment at a concentration of 10 ng/ml and to the axon compartment at a concentration of 100 ng/ml for 2d. On day 3, media was replaced and the AraC was omitted. On day 5, neurotrophins were removed from the cell body compartment and reduced to 1 ng/ml in the axon compartments for 3-5 days. For paclitaxel treatment experiments, 30 μM paclitaxel (Sigma-Aldrich) or vehicle control (0.1% DMSO) was added to either cell body or distal axon compartments on day 7 for 24 hours. For calpain inhibition experiments, 20 μM calpain inhibitor III (VWR) and paclitaxel were added simultaneously to distal axon compartment.\nWestern blotting. […] Using NIH ImageJ software, protein levels were quantified and levels of protein were normalized to GAPDH.\nQuantitative reverse transcription-PCR. […] Quantitative real-time RT-PCR was performed using Taqman Gene expression assays (Applied Biosystems) to assess the expression of bclw (Rn00821025_g1), bcl2 (Rn99999125_m1), and bclxL (Rn00580568_g1). […]"}, "[2]": {"test_system": "axonal mitochondria of E15 DRG neurons", "experiment": "TMRE measurement of mitochondrial membrane potential in microfluidic cultures", "assay_type": "cell-based, rat", "settings": "paclitaxel added to distal axon compartment", "method": "Microfluidic chambers cultures were prepared as described (see, e.g., Fenstermacher et al., Nature Neuroscience, 19:690-696 (2016)), with modifications. Briefly, 3×10^4E15 DRG neurons (4 μl volume) were plated into one channel of a microfluidic device (Xona Microfluidics, SND450) affixed to a PDL/laminin-coated cover glass (Fisherbrand Microscope Cover Glass; 24×40-1.5). Cells were plated in media with 0.3 μM AraC; 50 ng/mL NGF+BDNF was added to cell body wells, and 100 ng/ml was added to axon wells. On day 2, cell body neurotrophins were reduced to 10 ng/ml. On day 4, cell body neurotrophins were reduced to 1 ng/ml and axon neurotrophins were reduced to 10 ng/ml. For paclitaxel treatment experiments, 60 μM paclitaxel or 0.1% DMSO vehicle control was added on day 5 to axon wells for 48 hours. Cells were fixed at room temperature with 4% PFA diluted 1:2 in media for 10 min, then undiluted 4% PFA for an additional 10 min.\nTetramethylrhodamine ethyl ester measurements of mitochondrial membrane potential. […] Fluorescence intensity of axonal mitochondria was measured by dividing the fluorescence intensity of each mitochondria (Fm) by the background fluorescence intensity of a nearby cytoplasmic region (Fc). Fluorescence intensity was measured using NIH ImageJ software for 80 mitochondria per condition across three experiments, by an observer blind to condition."}, "[3]": {"test_system": "mice", "experiment": "Epidermal footpad innervation (Tuj1-positive intraepidermal nerve fibers)", "assay_type": "in vivo, mouse", "method": "Paclitaxel treatment and behavioral testing. 2 month old age-matched bclw−/− and bclw+/+ mice (17-30 g) of either sex were injected intraperitoneally (IP) with 4 mg/kg paclitaxel (Bristol-Myers Squibb) every other day for 8 days (4 total injections). Paclitaxel was prepared as 1 part 6 mg/ml paclitaxel stock solution diluted in vehicle (1:1 v/v Cremophor EL [EMD Millipore] and dehydrated ethanol) and 2 parts sterile saline and injected at 10 μl/g. Control mice were injected with 1 part vehicle and 2 parts saline. […] For three days prior to the baseline testing, mice were weighed, trained on an automated RotaRod apparatus (4 rpm for 1 min without falling), and habituated in von Frey cages. The next two days, baseline behavioral performance was assessed and averaged. The first paclitaxel injection was given three days later, and mice were weighed and behaviorally tested 10 days after the final injection. To assay motor function, mice were placed on the RotaRod with a ramp of 4-40 rpm and 0.4 rpm/sec acceleration, and latency to fall was measured. […] Withdrawal threshold was determined to be the applied force at which the animal withdrew the stimulated paw on at least 2 of 10 applications. […] Mouse behavior was assessed by an experimenter blind to genotype and condition.\nEpidermal footpad innervation. […] Images were acquired and quantified in NIH ImageJ by an experimenter blind to condition."}}, "data": [{"smiles": "CC(=O)O[C@H]1C(=O)[C@@]2(C)[C@H]([C@H](OC(=O)c3ccccc3)[C@]3(O)C[C@H](OC(=O)[C@H](O)[C@@H](NC(=O)c4ccccc4)c4ccccc4)C(C)=C1C3(C)C)[C@]1(OC(C)=O)CO[C@@H]1C[C@@H]2O", "note": "[paclitaxel]", "values": [{"measurement": "Bclw mRNA and protein levels", "setting": "[1]", "value": "reduced Bclw mRNA and protein levels selectively in axons and not in cell bodies"}, {"measurement": "axonal mitochondrial membrane potential (TMRE Fm/Fc)", "setting": "[2]", "value": "reduced axonal mitochondrial membrane potential"}, {"measurement": "intraepidermal nerve fiber number of the hindpaw", "setting": "[3]; bclw−/− compared to bclw+/+ mice, thick and thin skin", "value": "greater reduction in intraepidermal nerve fiber number"}, {"measurement": "thick skin epidermal innervation", "setting": "[3]; paclitaxel-treated compared with control mice (Example 12)", "value": "decreased thick skin epidermal innervation"}]}]}
